How the values were obtained:
[1] = biological target: JAK1 (recombinant purified GST-tagged catalytic domain) (Homo sapiens (Human), UniProt P23458); assay: biochemical;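 further: biochemical assay with HTRF read-out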
[2] = biological target: JAK2 (recombinant purified GST-tagged catalytic domain) (Homo sapiens (Human), UniProt O60674); assay: biochemical;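 further: biochemical JAK kinase assay with HTRF detection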
Sequence of JAK2 (recombinant purified GST-tagged catalytic domain) (O60674 849-1124): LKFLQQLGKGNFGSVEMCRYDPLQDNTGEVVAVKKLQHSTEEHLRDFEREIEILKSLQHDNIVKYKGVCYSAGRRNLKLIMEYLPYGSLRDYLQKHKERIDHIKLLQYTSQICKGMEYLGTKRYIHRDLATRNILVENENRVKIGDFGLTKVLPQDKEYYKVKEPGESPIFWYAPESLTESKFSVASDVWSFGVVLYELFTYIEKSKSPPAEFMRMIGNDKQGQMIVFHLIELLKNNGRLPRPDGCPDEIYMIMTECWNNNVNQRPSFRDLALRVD

Sequence of JAK1 (recombinant purified GST-tagged catalytic domain) (P23458 875-1153): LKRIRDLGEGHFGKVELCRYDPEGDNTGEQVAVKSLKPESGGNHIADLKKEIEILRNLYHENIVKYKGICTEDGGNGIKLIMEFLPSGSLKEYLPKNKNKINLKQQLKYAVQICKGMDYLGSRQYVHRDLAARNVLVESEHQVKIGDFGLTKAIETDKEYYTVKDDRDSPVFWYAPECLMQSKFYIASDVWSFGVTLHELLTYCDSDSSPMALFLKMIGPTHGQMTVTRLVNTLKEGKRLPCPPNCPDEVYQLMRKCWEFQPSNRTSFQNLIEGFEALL

IC50 [1] | IC50 [2] | SMILES
2 nM | 67 nM | N#C[C@H]1C[C@@H](N[C@H](C2CC2)C(F)(F)F)CC[C@@H]1n1cc(C(N)=O)c(Nc2ccc(C(F)(F)F)cc2)n1 (single isomer, unassigned) [Example 28-192, 1-[(1S,2S,4S or 1R,2R,4R)-2-cyano-4-{[(1S)-1-cyclopropyl-2,2,2-trifluoroethyl]amino}cyclo-hexyl]-3-{[4-(trifluoromethyl)phenyl]amino}-1H-pyrazole-4-carboxamide]
6 nM | 17 nM | COC(=O)c1ncc(Nc2nn([C@H]3CCCC[C@@H]3C#N)cc2C(N)=O)cc1C (single isomer, unassigned) [Example 17-78, methyl 5-({4-carbamoyl-1-[(1R,2R or 1S,2S)-2-cyanocyclohexyl]-1H-pyrazol-3-yl}amino)-3-methylpyridine-2-carboxylate]
1 nM | 17 nM | N#C[C@H]1CC(N2CC[C@H](F)C2)CC[C@@H]1n1cc(C(N)=O)c(Nc2ccc(S(=O)(=O)C(F)(F)F)cc2)n1 (single isomer, unassigned) [Example 28-158, 1-{(1S,2S or 1R,2R)-2-cyano-4-[(3S)-3-fluoropyrrolidin-1-yl]cyclohexyl}-3-({4-[(trifluoro-methyl)sulfonyl]phenyl}amino)-1H-pyrazole-4-carboxamide]
2 nM | 48 nM | COC(C)(C)CN[C@H]1CCC(n2cc(C(N)=O)c(Nc3ccc(Cl)cc3)n2)[C@@H](C#N)C1 (single isomer, unassigned) [Example 28-228, 3-[(4-chlorophenyl)amino]-1-{(1S,2S,4S or 1R,2R,4R)-2-cyano-4-[(2-methoxy-2-methylpropyl)amino]cyclo-hexyl}-1H-pyrazole-4-carboxamide]
0.3 nM | 1 nM | N#C[C@H]1CCCC[C@@H]1n1cc(C(N)=O)c(Nc2ccc(S(=O)(=O)NCc3cccnc3)cc2)n1 (single isomer, unassigned) [Example 17-84, 1-[(1R,2R or 1S,2S)-2-cyanocyclohexyl]-3-({4-[(pyridin-3-ylmethyl)sulfamoyl]phenyl}amino)-1H-pyrazole-4-carboxamide]
3 nM | 28 nM | N#C[C@H]1CCCC[C@@H]1n1cc(C(N)=O)c(Nc2ccnnc2)n1 (single isomer, unassigned) [Example 17-53, 1-[(1S,2S or 1R,2R)-2-cyanocyclohexyl]-3-(pyridazin-4-ylamino)-1H-pyrazole-4-carboxamide]
8 nM | 215 nM | C[C@H](N[C@@H]1CC[C@H](n2cc(C(N)=O)c(Nc3ccc(Cl)c(F)c3)n2)[C@@H](C#N)C1)C1CC1 (single isomer, unassigned) [Example 28-48, 3-[(4-chloro-3-fluorophenyl)amino]-1-[(1S,2S,4R or 1R,2R,4S)-2-cyano-4-{[(1S or 1R)-1-cyclopropylethyl]amino}cyclo-hexyl]-1H-pyrazole-4-carboxamide]
0.5 nM | 2 nM | N#C[C@H]1CCCC[C@@H]1n1cc(C(N)=O)c(Nc2ccc(S(=O)(=O)NCc3ccccc3Cl)cc2)n1 (single isomer, unassigned) [Example 17-91, 3-({4-[(2-chlorobenzyl)sulfamoyl]phenyl}amino)-1-[(1R,2R or 1S,2S)-2-cyanocyclohexyl]-1H-pyrazole-4-carboxamide]
4 nM | 152 nM | N#C[C@H]1C[C@@H](N[C@@H](C2CC2)C(F)(F)F)CC[C@@H]1n1cc(C(N)=O)c(Nc2ccc(C(F)(F)F)cc2)n1 (single isomer, unassigned) [Example 28-194, 1-[(1S,2S,4S or 1R,2R,4R)-2-cyano-4-{[(1S)-1-cyclopropyl-2,2,2-trifluoroethyl]amino}cyclo-hexyl]-3-{[4-(trifluoromethyl)phenyl]amino}-1H-pyrazole-4-carboxamide]
5 nM | 38 nM | N#C[C@@H]1C[C@H](C(=O)NC2COC2)CC[C@H]1n1cc(C(N)=O)c(Nc2ccc(Cl)cc2)n1 (single isomer, unassigned) [Example 35-13, 3-[(4-chlorophenyl)amino]-1-[(1R,2R,4R or 1S,2S,4S)-2-cyano-4-(oxetan-3-ylcarbamoyl)cyclohexyl]-1H-pyrazole-4-carboxamide]
1 nM | 12 nM | CNC(=O)O[C@@H]1CCC(n2cc(C(N)=O)c(Nc3ccc(F)cc3)n2)[C@@H](C#N)C1 (mixture of isomers) [Example 34-6, (1R,3S,4S and 1S,3R,4R)-4-{4-carbamoyl-3-[(4-fluorophenyl)aminol-1H-pyrazol-1-yl}-3-cyanocyclohexyl methylcarbamate]
0.3 nM | 6 nM | N#C[C@H]1C[C@@H](N2CCOCC2)CCC1n1cc(C(N)=O)c(Nc2ccc(S(=O)(=O)C(F)(F)F)cc2)n1 (mixture of isomers) [Example 27-13, 1-[(1S,2S,4S and 1R,2R,4R)-2-cyano-4-(morpholin-4-yl)cyclohexyl]-3-({4-[(trifluoromethyl)sulfonyl]phenyl)amino)-1H-pyrazole-4-carboxamide]
0.7 nM | 4 nM | N#C[C@H]1C[C@H](NC2COC2)CC[C@@H]1n1cc(C(N)=O)c(Nc2ccc(CC(F)(F)F)cc2)n1 (single isomer, unassigned) [Example 28-77, 1-[(1S,2S,4R or 1R,2R,4S)-2-cyano-4-(oxetan-3-ylamino)cyclohexyl]-3-{[4-(2,2,2-trifluoroethyl)phenyl]amino}-1H-pyrazole-4-carboxamide]
0.8 nM | 25 nM | CN[C@@H]1CCC(n2cc(C(N)=O)c(Nc3ccc(F)cc3)n2)[C@@H](C#N)C1 (mixture of isomers) [Example 27-3, 1-[(1S,2S,4R and 1R,2R,4S)-2-cyano-4-(methylamino)cyclohexyl]-3-[(4-fluorophenyl)amino]-1H-pyrazole-4-carboxamide]
15 nM | 79 nM | N#C[C@H]1CC[C@H](O)CC1n1cc(C(N)=O)c(Nc2ccccc2)n1 (mixture of isomers) [Example 2-12, 1-[(1R,2R,5R and 1S,2S,5S)-2-cyano-5-hydroxycyclohexyl]-3-(phenylamino)-1H-pyrazole-4-carboxamide]
2 nM | 16 nM | N#C[C@H]1CCCCC1n1cc(C(N)=O)c(Nc2ccc(-c3cn[nH]c3)nc2)n1 (mixture of isomers) [Example 21-3, 1-[(1S,2S and 1R,2R)-2-cyanocyclohexyl]-3-{[6-(1H-pyrazol-4-yl)pyridin-3-yl]amino}-1H-pyrazole-4-carboxamide]
2 nM | 56 nM | N#C[C@H]1C[C@H](NCc2ccccc2)CC[C@@H]1n1cc(C(N)=O)c(Nc2ccnc(F)c2)n1 (single isomer, unassigned) [Example 28-123, 1-[(1S,2S,4R or 1R,2R,4S)-4-(benzylamino)-2-cyanocyclohexyl]-3-[(2-fluoropyridm-4-yl)amino]-1H-pyrazole-4-carboxamide]
0.4 nM | 10 nM | N#C[C@H]1CC(NCC2CCS(=O)(=O)C2)CC[C@@H]1n1cc(C(N)=O)c(Nc2ccc(S(=O)(=O)C(F)(F)F)cc2)n1 (single isomer, unassigned) [Example 28-152, 1-[(1S,2S or 1R,2R)-2-cyano-4-{[(1,1-dioxidotetrahydrothiophen-3-yl)methyl]amino}cyclohexyl]-3-({4-[(trifluoro-methyl)sulfonyl]phenyl}amino)-1H-pyrazole-4-carboxamide]
0.5 nM | 36 nM | N#C[C@H]1C[C@@H](N2CC3(CCC3)C2)CC[C@@H]1n1cc(C(N)=O)c(Nc2ccnc(F)c2)n1 (single isomer, unassigned) [Example 28-133, 1-[(1S,2S,4S or 1R,2R,4R)-4-(2-azaspiro[3.3]hept-2-yl)-2-cyanocyclohexyl]-3-[(2-fluoropyridin-4-yl)amino]-1H-pyrazole-4-carboxamide]
7 nM | 218 nM | N#C[C@H]1C[C@@H](C(=O)NCC(F)(F)F)CC[C@@H]1n1cc(C(N)=O)c(Nc2ccc(Cl)cc2)n1 (single isomer, unassigned) [Example 35-22, 3-[(4-chlorophenyl)amino]-1-{(1S,2S,4S or 1R,2R,4R)-2-cyano-4-[(2,2,2-trifluoroethyl)carbamoyl]cyclohexyl}-1H-pyrazole-4-carboxamide]
0.7 nM | 23 nM | N#C[C@H]1C[C@@H](N2CCC2)CC[C@@H]1n1cc(C(N)=O)c(Nc2ccc(OC(F)(F)F)cc2)n1 (single isomer, unassigned) [Example 28-58, 1-[(1S,2S,4S or 1R,2R,4R)-4-azetidin-1-yl-2-cyanocyclohexyl]-3-{[4-(trifluoromethoxy)phenyl]amino}-1H-pyrazole-4-carboxamide]
21 nM | 65 nM | N#C[C@H]1C[C@@H](O)CC[C@@H]1n1cc(C(N)=O)c(Nc2ccc(C(F)(F)F)nc2)n1 (single isomer, unassigned) [Example 33-9, 1-[(1S,2S,4S or 1R,2R,4R)-2-cyano-4-hydroxycyclohexyl]-3-{[6-(trifluoromethyl)pyridin-3-yl]amino}-1H-pyrazole-4-carboxamide]
0.2 nM | 1 nM | N#C[C@H]1CC(NCC(=O)O)CC[C@@H]1n1cc(C(N)=O)c(Nc2ccc(S(=O)(=O)C(F)(F)F)cc2)n1 (single isomer, unassigned) [Example 28-160, N-{(3S,4S or 3R,4R)-4-[4-carbamoyl-3-({4-[(trifluoro-methyl)sulfonyl]phenyl}amino)-1H-pyrazol-1-yl]-3-cyanocyclohexyl}glycine]
10 nM | 180 nM | CC1(O)CN(C(=O)[C@H]2CC[C@H](n3cc(C(N)=O)c(Nc4ccc(Cl)cc4)n3)[C@@H](C#N)C2)C1 (single isomer, unassigned) [Example 35-30, 3-[(4-chlorophenyl)amino]-1-{(1S,2S,4S or 1R,2R,4R)-2-cyano-4-[(3-hydroxy-3-methylazetidin-1-yl)carbonyl]cyclohexyl}-1H-pyrazole-4-carboxamide]

SMILES | IC50 [1] | IC50 [2]
N#C[C@H]1C[C@H](N2CCC2)CC[C@@H]1n1cc(C(N)=O)c(Nc2ccc(C(F)(F)F)cc2)n1 (single isomer, unassigned) [Example 28-131, 1-[(1S,2S,4R or 1R,2R,4S)-4-azetidin-1-yl-2-cyanocyclohexyl]-3-{[4-(trifluoromethyl)phenyl]amino}-1H-pyrazole-4-carboxamide] | 0.9 nM | 51 nM
